Reference: ChEMBL document CHEMBL3871303, “In vivo and in silico anti-inflammatory mechanism of action of the semisynthetic (-)-cubebin derivatives (-)-hinokinin and (-)-O-benzylcubebin” (2017)

Tests used:
Type in all cases: functional
Rattus norvegicus [1] = assay: Antiinflammatory activity in Wistar rat assessed as inhibition of dextran-induced paw edema at 40 mg/kg, po administered 30 mins prior to dextran treatment measured after 3 hrs
Rattus norvegicus [2] = assay: Antiinflammatory activity in Wistar rat assessed as inhibition of PGE2-induced paw edema at 40 mg/kg, po administered 30 mins prior to PGE2 treatment measured after 3 hrs
Rattus norvegicus [3] = assay: Antiinflammatory activity in Wistar rat assessed as inhibition of PGE2-induced paw edema at 10 mg/kg, po administered 30 mins prior to PGE2 treatment measured after 3 hrs
Rattus norvegicus [4] = assay: Antiinflammatory activity in Wistar rat assessed as inhibition of dextran-induced paw edema administered orally 30 mins prior to dextran treatment measured after 3 hrs

O=C1OC[C@@H](Cc2ccc3c(c2)OCO3)[C@@H]1Cc1ccc2c(c1)OCO2
inhibition in vivo at 40 mg/kg (Rattus norvegicus [1]): 18.3% | inhibition in vivo at 40 mg/kg (Rattus norvegicus [2]): 59.2%

c1ccc(COC2OC[C@@H](Cc3ccc4c(c3)OCO4)[C@@H]2Cc2ccc3c(c2)OCO3)cc1 (stereo partly specified)
inhibition in vivo at 40 mg/kg (Rattus norvegicus [1]): 3.5% | inhibition in vivo at 40 mg/kg (Rattus norvegicus [2]): 66%

COc1ccc2c(c1)c(CC(=O)O)c(C)n2C(=O)c1ccc(Cl)cc1 [INDOMETHACIN]
inhibition in vivo at 10 mg/kg (Rattus norvegicus [3]): 54%

CN1CCC(=C2c3ccccc3C=Cc3ccccc32)CC1 [CYPROHEPTADINE]
inhibition (INH) (Rattus norvegicus [4]): 56%
